Reference: US4189426A, “Recombinant hormonal compositions and method” (Hoffmann-La Roche, Inc., priority 1978, dated 1980)
Read-outs that look alike come from different tables or passages of the source. Starred links: 1 amine or outer side, 2 acyl side, 3 side chain; linkers in the order of their positions; H or OH if unused. Non-standard residues stand in square brackets, D forms with d. No end group written: not given here. Cys(Cam) = carboxamidomethylated cysteine, NC(=O)CSC[C@H](N[*:1])C(=O)[*:2]

What was measured:
rat tibia = rat tibia test (growth-promoting activity); format: in vivo; settings: for Response (tibia width): mean ± SEM; for Response (tibia width) / Rat tibia assay Response (tibia width): four animals; for Relative potency to HGH: Tables 5 and 8; for Rat tibia assay Response (tibia width): Table 1, mean ± standard error; for growth-promoting activity, result in words: rat tibia test; for Response (rat tibia test): Table 7, total dose of 600 μg in 4 days, means ± S.E., four test animals
Protocol: The growth-promoting activity of PL-HGH, the unpurified recombinant of Example 1 (fraction IV), [Cys(Cam)^53 -HGH-(1-134)], [Cys(Cam)^165, 182, 189 -HGH-(141-191)] and saline control were determined by the rat tibia test of Greenspan et al, Endocrinology 45, 455 (1949) and by the local crop-sac assay in the pigeon according to Lyons, Proc. Soc. Exp. Biol. 35, 645 (1937) and Nicoll, Endocrinology 80, 641 (1967).
(§1) Plasmin fragments of reduced-carboxamidomethylation HGH and HCS were obtained as described above. Exclusion chromatography of the reaction mixture was performed at 22° C. on a Sephadex G-100 column (1.5×60 cm) in 0.01 M NH4 HCO3 of pH 8.4. For radioimmunoassay, the double-antibody procedure using a guinea pig antiserum to native HGH was performed. The growth-promoting activity was determined by the rat tibia test.

pigeon crop-sac = experiment: local crop-sac assay in the pigeon (prolactin / lactogenic activity); format: in vivo; settings: for Pigeon crop-sac assay Response (dry mucosal weight): Table 1, four birds; for Pigeon crop-sac assay Response (dry mucosal weight) / Dry mucosal weight: mean ± standard error; for Dry mucosal weight: Table 4, pigeon crop-sac test; for Response (dry mucosal weight): Table 10, mean ± SEM, number of birds in parentheses
Protocol: The growth-promoting activity of PL-HGH, the unpurified recombinant of Example 1 (fraction IV), [Cys(Cam)^53 -HGH-(1-134)], [Cys(Cam)^165, 182, 189 -HGH-(141-191)] and saline control were determined by the rat tibia test of Greenspan et al, Endocrinology 45, 455 (1949) and by the local crop-sac assay in the pigeon according to Lyons, Proc. Soc. Exp. Biol. 35, 645 (1937) and Nicoll, Endocrinology 80, 641 (1967). Amino acid compositions of acid and carboxypeptidase hydrolysates were determined in an automatic amino acid analyzer (model 120B, Beckman Instruments). For the analysis of tryptophan, the methanesulfonic acid hydrolysates were used. Amino-terminal residue and sequence analyses were preformed by the dansyl-Edman procedure. Isoelectric focusing was carried out in 8 M urea. Prolactin activity was estimated by the pigeon crop-sac assay. Microcomplement fixation experiments were performed with rabbit antisera to HCS. The gel-double-diffusion technique of Ouchterlony was done using 1% agar in 0.01 M phosphate buffer of pH 7.5. Exclusion chromatography of the purified fragments or the recombinant was performed on a Sephadex G-100 column (1.5×60 cm; V0 =35 ml) in 10 mM NH4 HCO3 (pH 8.4) at 21°. Circular dichroism (CD) spectra were obtained by a spectropolarimeter (Cary model 60) equipped with a circular dichroism attachment (model 6002). Microcomplement fixation was performed with the guinea pig antiserum to ovine prolactin. The gel double-diffusion technique of Ouchterlony was carried out with 1% agar in 10 mM phosphate buffer (pH 7.5). The prolactin activity was estimated by the local crop-sac assay in the pigeon.

[1] = test system: guinea pig antiserum to native HGH; experiment: radioimmunoassay, double-antibody procedure; format: binding
Protocol: as §1

antisera to HCS = experiment: gel double-diffusion technique of Ouchterlony; format: binding, rabbit; settings: HCS 10 μg, small fragment 40 μg
Protocol: (§2) Amino acid compositions of acid and carboxypeptidase hydrolysates were determined in an automatic amino acid analyzer (model 120B, Beckman Instruments). For the analysis of tryptophan, the methanesulfonic acid hydrolysates were used. Amino-terminal residue and sequence analyses were preformed by the dansyl-Edman procedure. Isoelectric focusing was carried out in 8 M urea. Prolactin activity was estimated by the pigeon crop-sac assay. Microcomplement fixation experiments were performed with rabbit antisera to HCS. The gel-double-diffusion technique of Ouchterlony was done using 1% agar in 0.01 M phosphate buffer of pH 7.5.

rabbit antisera to HCS = experiment: microcomplement fixation; format: binding; settings: antiserum to HCS at a dilution of 1:5500; HCS at 10 ng
Protocol: as §2

antiserum to prolactin = experiment: gel double-diffusion technique of Ouchterlony; format: binding
Protocol: (§3) Exclusion chromatography of the purified fragments or the recombinant was performed on a Sephadex G-100 column (1.5×60 cm; V0 =35 ml) in 10 mM NH4 HCO3 (pH 8.4) at 21°. Circular dichroism (CD) spectra were obtained by a spectropolarimeter (Cary model 60) equipped with a circular dichroism attachment (model 6002). Microcomplement fixation was performed with the guinea pig antiserum to ovine prolactin. The gel double-diffusion technique of Ouchterlony was carried out with 1% agar in 10 mM phosphate buffer (pH 7.5). The prolactin activity was estimated by the local crop-sac assay in the pigeon.

[2] = test system: guinea pig antiserum to ovine prolactin; experiment: microcomplement fixation; format: binding; settings: guinea pig antiserum to ovine prolactin at a dilution of 1:5000; 10 ng of the antigen
Protocol: as §3

[Cys(Cam)^53 ]-HGH(1-134) + [Nle^170, Ala^165, 182, 189 ]-HGH(145-191) [Recombinant IV]
Response (tibia width) (rat tibia; Table 8, total dose 20 μg): 248.5 ± 7.7 micrometers
Response (tibia width) (rat tibia; Table 8, total dose 60 μg): 297.2 ± 10.0 micrometers
Relative potency to HGH (rat tibia; rat tibia assay): 113%

Cys(Cam)^53 -HGH-(1-134) [reference compound]
Pigeon crop-sac assay Response (dry mucosal weight) (pigeon crop-sac; total dose 0.65 nmol): 9.6 ± 1.8 mg
Pigeon crop-sac assay Response (dry mucosal weight) (pigeon crop-sac; total dose 1.95 nmol): 12.4 ± 2.7 mg
prolactin (lactogenic) activity, result in words (pigeon crop-sac; pigeon crop-sac assay): only a very small fraction of the comparative biological activities of the native human growth hormone
Relative potency to PLHGH (pigeon crop-sac; pigeon crop-sac assay, Tables 1 and 2): less than 1%
Rat tibia assay Response (tibia width) (rat tibia; total dose 3.26 nmol): 207.2 ± 1.5 micra
Rat tibia assay Response (tibia width) (rat tibia; total dose 9.78 nmol): 235.5 ± 1.5 micra
Response (tibia width) (rat tibia; Table 5, total dose 150 μg): 231.2 ± 1.6 micrometers
Response (tibia width) (rat tibia; Table 5, total dose 450 μg): 275.0 ± 3.8 micrometers
Relative potency to PLHGH (rat tibia; rat tibia assay, Tables 1 and 2): 8%
growth-promoting activity, result in words (rat tibia): only a very small fraction of the comparative biological activities of the native human growth hormone
radioimmunoassay inhibition / cross-reaction compared with HGH, in words [1]: only a slight cross-reaction

[Nle^170, Ala^165,182,189 ]-HGH-(140-191)
Response (rat tibia test) (rat tibia): 197 ± 4.2 microns

[Cys(Cam)HCS-(1-133)] + [Recombinant II, [Cys(Cam)HCS-(1-133)] + [Cys(Cam)^165,182,189 -HGH-(141-191)]]
Response (tibia width) (rat tibia; Table 5, total dose 30 μg): 218.5 ± 9.8 micrometers
Response (tibia width) (rat tibia; Table 5, total dose 90 μg): 229.0 ± 4.1 micrometers
Relative potency to HGH (rat tibia; rat tibia assay): 10%
growth-promoting activity, result in words (rat tibia): less active in comparison with that of I
growth-promoting activity, result in words (rat tibia; listed as recombinant of Cys(Cam)^53 -HCS-(1-133) and Cys(Cam)^165, 182, 189 -HGH-(141-191)): measurable growth promoting activity but at a reduced level of potency than the aforesaid recombinants
antigen concentration needed to give the same degree of inhibition, relative to HGH [1]: at least 30 times
radioimmunoassay inhibition / cross-reaction compared with HGH, in words [1]: much less effective than HGH

[Cys(Cam)^53 -HGH(1-134)] + [Recombinant I, [Cys(Cam)^53 -HGH(1-134)] + [Cys(Cam^165,182,189 -HCS-(141-191)]]
Response (tibia width) (rat tibia; Table 5, total dose 20 μg): 212.0 ± 4.7 micrometers
Response (tibia width) (rat tibia; Table 5, total dose 60 μg): 259.2 ± 2.9 micrometers
Relative potency to Cys(Cam)^53 HGH-(1-134) (rat tibia; rat tibia assay, Table 5): 491%
Relative potency to HGH (rat tibia; rat tibia assay): 50%
growth-promoting activity, result in words (rat tibia): significant growth-promoting activity
radioimmunoassay inhibition / cross-reaction compared with HGH, in words [1]: at low concentrations gave nearly identical inhibition to that of HGH
radioimmunoassay inhibition / cross-reaction compared with HGH, in words ([1]; listed as recombinant of Cys (Cam)^53 -HGH-(1-134) and Cys (Cam)^165, 182, 189 -HCS-(141-1)): nearly full immunoreactivity against the antiserum to HGH

Cys (Cam)^53 -HCS-(1-133) [N]
Dry mucosal weight (pigeon crop-sac; total dose 40 (mg)): 11.2 ± 0.7 mg
Dry mucosal weight (pigeon crop-sac; total dose 120 (mg)): 12.0 ± 0.9 mg
prolactin (lactogenic) activity, result in words (pigeon crop-sac; pigeon crop-sac assay): may have low activity but is much less than the native hormone
Response (tibia width) (rat tibia; Table 5, total dose 300 μg): 185.5 ± 1.7 micrometers
precipitin reaction (antisera to HCS): weak precipitin line which showed non-identity with the native hormone
complement fixed (rabbit antisera to HCS): less than 10%

human growth hormone [HGH]
Response (tibia width) (rat tibia; Table 5, total dose 20 μg): 242.8 ± 3.8 micrometers
Response (tibia width) (rat tibia; Table 5, total dose 60 μg): 282.8 ± 1.5 micrometers
Response (tibia width) (rat tibia; Table 8, total dose 20 μg): 245.0 ± 9.5 micrometers
Response (tibia width) (rat tibia; Table 8, total dose 60 μg): 290.2 ± 2.9 micrometers

[Lys^135,136,138, Glu^137,139, Nle^170,Ala^165,182,189 ]-HGH-(135-191)
Response (rat tibia test) (rat tibia): 192 ± 3.5 microns

Cys(Cam)^165,182,189 -HGH-(141-191) (QTYSKFDTNSHNDDALLKNYGLLY[Cys(Cam)]FRKDMDKVETFLRIVQ[Cys(Cam)]RSVEGS[Cys(Cam)]GF; UniProt P01241 167-217, looked up, fragment) [COOH-terminal plasmin fragment of reduced-carboxamidomethylated HGH, reference compound]
Pigeon crop-sac assay Response (dry mucosal weight) (pigeon crop-sac; total dose 20.3 nmol): 13.4 ± 1.2 mg
prolactin (lactogenic) activity, result in words (pigeon crop-sac; pigeon crop-sac assay): only a very small fraction of the comparative biological activities of the native human growth hormone
Rat tibia assay Response (tibia width) (rat tibia; total dose 9.78 nmol): 186.7 ± 4.4 micra
Response (rat tibia test) (rat tibia): 212 ± 7.3 microns
growth-promoting activity, result in words (rat tibia; 182, 189 HGH-(141-191)]): only a very small fraction of the comparative biological activities of the native human growth hormone
growth-promoting activity, result in words (rat tibia; listed as the 51 residue fragment): about nil

Cys(Cam)^165, 182, 189, -HCS-141-191
Dry mucosal weight (pigeon crop-sac; total dose 120 (mg)): 6.5 ± 1.4 mg
precipitin reaction (antisera to HCS): failed to give a precipitin reaction
complement fixed (rabbit antisera to HCS): less than 10%

[Cys(Cam)^ 53 ]-HGH(1-134) + [Nle^170, Ala^165, 182, 189 ]-HGH(140-191) [Recombinant III]
Response (tibia width) (rat tibia; Table 8, total dose 20 μg): 249.2 ± 9.2 micrometers
Response (tibia width) (rat tibia; Table 8, total dose 60 μg): 286.0 ± 2.1 micrometers
Relative potency to HGH (rat tibia; rat tibia assay): 100%

[Nle^170, Ala^165,182,189 ]-HGH-(145-191)
Response (rat tibia test) (rat tibia): 189.5 ± 7.5 microns

B1: human chorionic somatomammotropin (protein, UniProt P0DML2 27-217, looked up)
Chorionic somatomammotropin …: VQTVPLSRLFDHAMLQAHRAHQLAIDTYQEFEETYIPKDQKYSFLHDSQTSFCFSDSIPTPSNMEETQQKSNLELLRISLLLIESWLEPVRFLRSMFANNLVYDTSDSDDYHLLKDLEEGIQTLMGRLEDGSRRTGQILKQTYSKFDTNSHNHDALLKNYGLLYCFRKDMDKVETFLRMVQCRSVEGSCGF
notes: native human choriomammotropin hormone
Dry mucosal weight (pigeon crop-sac; total dose 4 (mg)): 24.2 ± 2.9 mg
Dry mucosal weight (pigeon crop-sac; total dose 12 (mg)): 30.5 ± 3.7 mg
precipitin reaction (antisera to HCS): single sharp precipitin line
complement fixed (rabbit antisera to HCS): about 90%

B2: Prolactin: prolactin isolated from sheep pituitary glands (protein, UniProt P01240 31-229, looked up)
Prolactin: TPVCPNGPGNCQVSLRDLFDRAVMVSHYIHNLSSEMFNEFDKRYAQGKGFITMALNSCHTSSLPTPEDKEQAQQTHHEVLMSLILGLLRSWNDPLYHLVTEVRGMKGVPDAILSRAIEIEEENKRLLEGMEMIFGQVIPGAKETEPYPVWSGLPSLQTKDEDARHSAFYNLLHCLRRDSSKIDTYLKLLNCRIIYNNNC
precipitin line (antiserum to prolactin): single precipitin line
Response (dry mucosal weight) (pigeon crop-sac; total dose 2 μg): 20.5 ± 0.9 mg
Response (dry mucosal weight) (pigeon crop-sac; total dose 6 μg): 45.2 ± 3.1 mg
complement fixed [2]: 98%
